A value given as a limit tells only on which side of the number the result lay.

A short description of the test: Effective concentration of compound in producing vasoconstrictions was determined. The format is functional.

Compound `CC(C)[C@H](NC(=O)[C@@H]1CSSC[C@@H](NC(=O)[C@@H](N)CC(=O)O)C(=O)N[C@@H](Cc2ccccc2)C(=O)N[C@@H](Cc2c[nH]c3ccccc23)C(=O)N[C@@H](CCCCN)C(=O)N[C@@H](Cc2ccc(O)cc2)C(=O)N1)C(=O)O` came in with a pD2 of 8.6.

The compound `CC(C)[C@H](NC(=O)[C@@H]1NC(=O)[C@H](Cc2ccc(O)cc2)NC(=O)[C@H](CCCCN)NC(=O)[C@H](Cc2c[nH]c3ccccc23)NC(=O)[C@H](Cc2ccccc2)NC(=O)[C@H](NC(=O)[C@@H](N)CC(=O)O)C(C)(C)SSC1(C)C)C(=O)O` returned a pD2 of 8.2.

`CC(C)[C@H](NC(=O)[C@@H]1CSSC[C@@H](NC(=O)[C@H](CC(=O)O)NC(=O)[C@H]2CCCN2C(=O)[C@@H](NC(=O)[C@@H](N)CCC(=O)O)[C@@H](C)O)C(=O)N[C@H](Cc2ccccc2)C(=O)N[C@@H](Cc2c[nH]c3ccccc23)C(=O)N[C@H](CCCCN)C(=O)N[C@@H](Cc2ccc(O)cc2)C(=O)N1)C(=O)O` came in with a pD2 of 8.3.

`CC(C)[C@H](NC(=O)[C@@H]1NC(=O)[C@H](Cc2ccc(O)cc2)NC(=O)[C@H](CCCCN)NC(=O)[C@H](Cc2c[nH]c3ccccc23)NC(=O)[C@H](Cc2ccccc2)NC(=O)[C@@H](NC(=O)[C@@H](N)CC(=O)O)CSSC1(C)C)C(=O)O` gave a pD2 of 6.7.

For the compound `CC(C)[C@H](NC(=O)[C@@H]1CSSC(C)(C)[C@@H](NC(=O)[C@@H](N)CC(=O)O)C(=O)N[C@@H](Cc2ccccc2)C(=O)N[C@@H](Cc2c[nH]c3ccccc23)C(=O)N[C@@H](CCCCN)C(=O)N[C@@H](Cc2ccc(O)cc2)C(=O)N1)C(=O)O`, the pD2 was determined as 9.6.

In turn, `CC(C)[C@H](NC(=O)[C@@H]1CCSSC[C@H](NC(=O)[C@@H](N)CC(=O)O)C(=O)N[C@@H](Cc2ccccc2)C(=O)N[C@@H](Cc2c[nH]c3ccccc23)C(=O)N[C@@H](CCCCN)C(=O)N[C@@H](Cc2ccc(O)cc2)C(=O)N1)C(=O)O` displayed a pD2 of less than 6.5.

(Values after ChEMBL document CHEMBL1149115, “Unraveling the active conformation of urotensin II” (J Med Chem, 2004).)
